The values below come from article PMC5972579 (Brain, 2018).

Experiment [1] has as its target T1, GPR52 (Homo sapiens, UniProt Q9Y2T5). Put plainly: intracellular cAMP HTRF assay. The class given is cell-based.
In experiment [2] the target is T1, GPR52. Put plainly: inhibition of WO-[…])-stimulated cAMP. It counts as cell-based.

T1 sequence (Q9Y2T5 whole entry): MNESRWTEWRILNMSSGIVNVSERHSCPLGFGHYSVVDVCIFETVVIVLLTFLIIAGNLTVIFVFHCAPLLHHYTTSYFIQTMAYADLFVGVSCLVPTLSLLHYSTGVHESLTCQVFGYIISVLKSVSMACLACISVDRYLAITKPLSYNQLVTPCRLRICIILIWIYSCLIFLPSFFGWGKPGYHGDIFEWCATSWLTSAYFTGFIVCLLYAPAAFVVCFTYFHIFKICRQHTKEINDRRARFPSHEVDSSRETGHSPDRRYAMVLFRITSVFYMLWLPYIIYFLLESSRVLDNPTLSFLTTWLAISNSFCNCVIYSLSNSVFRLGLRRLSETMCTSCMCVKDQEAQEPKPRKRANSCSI

For the molecule `Cc1nn(-c2cccc3cc(Cc4cccc(C(F)(F)F)c4)sc23)cc1C(=O)NCCO` [WO-459, N-(2-hydroxyethyl)-3-methyl-1-[2-[3-(trifluoromethyl)benzyl]benzothiophen-7-yl]-1H-pyrazole-4-carboxamide], the EC50 (commonly the concentration at which the effect is half-maximal) on GPR52 [1] turned out to be 6 ± 0.7 nM.
As to `C=C1C(=O)O[C@@H]2/C=C(\C)CC3C=C(C[C@H](OC(=O)/C(C)=C\C)[C@@H]12)C(=O)O3` (mixture of isomers) [E7, (3S,4R,8R,9E)-10-methyl-5-methylidene-6,14-dioxo-7,13-dioxatricyclo[10.2.1.0⁴,⁸]pentadeca-1(15),9-dien-3-yl (2Z)-2-methylbut-2-enoate], it took 12 ± 0.7 µM to reach half-maximal inhibition against GPR52 [2] (IC50).
